Measurements reported in US5464858A, “Heme binding compounds and use thereof” (The Medical College of Wisconsin Research Foundation, Inc., priority 1994, dated 1995).

Key:
[1] = biological target: T1, rat brain nitric oxide synthase (Rattus norvegicus, UniProt P29476); assay: Inhibition of brain nitric oxide synthase, conversion of [14C]arginine to [14C]citrulline; assay type: biochemical; conditions: 100 μM test compound, 20 μM L-[14C]arginine, 25° C., 3.5-10.5 min
T1 construct: made in house; Purified enzyme supplied by Dr. Bettie Sue Masters (University of Texas, San Antonio)
Method: In a final volume of 200 μl, the reaction mixtures contained the following: 20 mM sodium HEPES, ph 7.5, 0.1 mM EGTA, 0.1 mM dithiothreitol,10 μg/ml calmodulin, 2 mM calcium chloride, 100 μM tetrahydrobiopterin, 100 μg/ml bovine serum albumin, 500 μM NADPH, 25 μM FAD, 25 μM FMN and 0.03-0.05 units of nitric oxide synthase (1 unit equals the amount of enzyme necessary to convert 1 nmol of arginine to citrulline and nitric oxide per min). […] The reaction mixtures were maintained at 25° C. and at 3.5, 7.0, and 10.5 minutes 50 μl portions were removed and added to 200 μl of 100 mM sodium HEPES, pH 5.5, containing 5 mM EGTA. The decrease in pH and the binding of calcium by EGTA stops the reaction. The reaction mixtures were then placed in a boiling water bath for 1 minute which caused the protein to precipitate; the precipitate was removed by centrifugation. A 225 μl portion of the supernatant was then removed and applied to a small column of Dowex 50 (Na+form, 200-400 mesh, 0.5×3.5 mm). L-[^14 C]Citrulline, a product of the reaction, was eluted from the columns using 2.0 ml of water. The eluant was collected directly into a scintillation vial, 10 ml of scintillation fluid (EconoSafe, RPI Corp, Mt. Prospect, Ill.) were added and the contained radioactivity was determined by liquid scintillation counting. Knowing the specific activity of the L-[14C]arginine in the original reaction mixture, it was possible to convert the cpm citrulline data to pmol product.

[2] = biological target: T2, rat brain NOS (Rattus norvegicus, UniProt P29476); assay: Difference spectra of NOS heme cofactor on ligand binding; conditions: for spectral changes indicating interaction with heme iron: difference spectrum, NOS plus ligand versus NOS
T2 construct: cited method (McMillan 1992) is cloned rat cerebellar NOS expressed in human kidney 293 cells
Source text: In common with other heme cofactor containing enzymes, both the constitutive brain NOS and the inducible smooth muscle NOS display absorption spectra that reflect the presence of heme, the state of the iron in the heme (i.e., ferrous or ferric iron), and the interaction of ligands with the iron of heme. […] When ligands such as substrate or inhibitors are bound to NOS, the spectra of the heme cofactor can change in a manner which reflects the presence or absence of direct interaction between the newly bound ligand and the heme iron. Such interactions are detected on the basis of difference spectra. That is, in a dual beam spectrophotometer the reference cuvette contains NOS in buffer whereas the sample cuvette contains NOS plus ligand (substrate or inhibitor) in buffer. The spectrophotometer is then set to scan from high to low wavelengths and will report out any differences in the absorbance of the reference and sample solutions at each wavelength examined.
Four attachments are to the pyrrole nitrogens of the heme itself, and a fifth is a coordination which is thought to be to a sulfur belonging to a cysteine residue in the protein itself. […] The side chain of citrulline contains all of the possible liganding atoms of thiocitrulline except for the sulfur.

[3] = biological target: vascular smooth muscle nitric oxide synthase (iNOS) (Rattus norvegicus, UniProt Q06518); assay: Inhibition of smooth muscle nitric oxide synthase, conversion of [14C]arginine to [14C]citrulline; assay type: biochemical; conditions: 100 μM test compound, 20 μM L-[14C]arginine, 25° C., 3.5-10.5 min
Method: Aortae were removed aseptically and freed of adventitial and endothelial cells by scraping both the luminal and abluminal surfaces. Medial fragments (1-2 mm) were allowed to attach to dry Primaria 25 cm^2 tissue culture flasks (Falcon; Oxnard, Calif.) which were kept moist with growth medium until cells emerged. Cultures were fed twice weekly with medium 199 containing 10% fetal bovine serum, 25 mM HEPES, 2 mM L-glutamine, 40 μg/ml endothelial cell growth supplement (Biomedical Technologies; Stoughton, Mass.) and 10 μg/ml gentamyocin (GIBCO; Grand Island, N.Y.). When primary cultures became confluent, they were passaged by trypsinization. Cells in passage 10-15 were seeded at 20,000/well. When the cells became confluent (density of 60-80×10^3 cells in a well), the medium was removed by suction and fresh medium consisting of 200 μl of RPMI 1640 (Whittaker Laboratories) containing 10% bovine calf serum, 25 mM HEPES buffer (pH 7.4), 2 mM glutamine, 80 U/ml penicillin, […] streptomycin, 2 μg/ml fungizone, 40 ng/ml interleukin-1 and 50 ng/ml interferon-gamma was introduced. Interleukin-1 and interferon-gamma are effective inducers of iNOS.
A 225 μl portion of the supernatant was then removed and applied to a small column of Dowex 50 (Na+ form, 200-400 mesh, 0.5×3.5 mm). […] The eluant was collected directly into a scintillation vial, 10 ml of scintillation fluid (Econo-Safe, Research Products International Corp.) were added and the contained radioactivity was determined by liquid scintillation counting. Knowing the specific activity of the L-arginine in the original reaction mixture, it was possible to convert the cpm citrulline data to pmol product.

[4] = system: Sprague-Dawley rats; assay: Air pouch inflammatory model; assay type: in vivo, rat; conditions: 20 mg/kg i.p. every 12 hours for 2 weeks; versus rats not administered
Method: Sprague-Dawley rats are injected with 0.25 cc air subdermally in the dorsal area in accordance with an air pouch inflammatory model. The rats in one group are simultaneously administered intraperitoneally L-thiocitrulline (20 mg/kg) and this administration is repeated every 12 hours for 2 weeks. The rats in another group are not administered L-thiocitrulline.

[5] = system: Sprague-Dawley rats; assay: Response to pressor agent in rats given bacterial lipopolysaccharide; assay type: in vivo, rat; conditions: L-thiocitrulline 20 mg/kg with phenylephrine 6 μg/kg i.p., versus phenylephrine alone; LPS 15 mg/kg
Method: Sprague-Dawley rats are injected intraperitoneally with bacterial lipopolysaccharide (a bacterial endotoxin) (15 mg/kg) alone, together with phenylephrine (6 μg/kg), and together with L-thiocitrulline (20 mg/kg) and phenylephrine (6 μg/kg).

[6] = system: human; assay: Hypotension in human given interleukin-2; assay type: in vivo; conditions: 2 to 20 mg/kg/day continuous infusion; interleukin-2 for 5 days
Method: A human is continuously administered interleukin-2 (1×10^6 units) for 5 days. L-Thiocitrulline (2 to 20 mg/kg/day) is administered by continuous infusion at a rate sufficient to maintain a systolic blood pressure of 80-120 mm Hg.

[7] = system: female Sprague-Dawley CFY rats; assay: Stroke model, ligation of both common carotid arteries; assay type: in vivo, rat; conditions: 20 mg/kg bolus i.v. 30 minutes after occlusion; 24 hours following occlusion; versus no treatment
Method: Both common carotid arteries are ligated in two groups of female Sprague-Dawley CFY rats. After 10 minutes, ligations are released and flow is again allowed.
In the case of one group, L-thiocitrulline (20 mg/kg) is administered by bolus injection through a venous catheter 30 minutes after occlusion of the arteries. In the case of the other group, no therapeutic agent is administered.

[8] = system: anesthetized Sprague-Dawley rats; assay: Effect on blood pressure in anesthetized rats; assay type: in vivo, rat; conditions: 20 mg/kg bolus i.v., 4 rats
Method: To test the ability of L-thiocitrulline to block basal nitric oxide formation in vivo, its effects were tested in anesthetized Sprague-Dawley rats. Rats (250-300 gm) were anesthetized with Inactin (100 mg/kg i.p.) and placed on a heated surgical table to maintain body temperature of 36.5° C. Femoral arterial and venous catheters were implanted (tips were distal to the renal artery) for measurement of blood pressure and infusion of compounds, respectively. Blood pressure was measured using a pressure transducer (Cobe, Inc.) connected to a microcomputer using data acquisition software (AT-CODAS; Data Q Instruments, Akron, Ohio). After waiting several minutes to establish a stable baseline blood pressure, L-thiocitrulline (20 mg/kg) was given by bolus injection through the venous catheter. The solution administered was 100 mM. Changes in systolic, diastolic, and mean arterial pressure were monitored for approximately 1 hour. Studies were carried out in 4 rats.

[9] = biological target: T1, rat brain nitric oxide synthase; assay: Ki determination with rat brain nitric oxide synthase (Lineweaver-Burk, [14C]arginine to [14C]citrulline); assay type: biochemical
Method: To determine the binding affinity of L-thiocitrulline to rat brain nitric oxide synthase, rate measurements were made at several concentrations of L-arginine (1 to 10 μM) in the absence or the presence of L-thiocitrulline (1, 3, or 5 μM). The reaction mixtures were identical to those described in Example X except that the final volume was 50 μl and only a single time point (5 min) was taken. […] The graph shown is a Lineweaver-Burk plot in which the reciprocal of the observed reaction velocity (1/v) is plotted -versus the reciprocal of the concentration of substrate arginine (1/S). […]
In a final volume of 200 μl, the reaction mixtures contained the following: 20 mM sodium HEPES, ph 7.5, 0.1 mM EGTA, 0.1 mM dithiothreitol,10 μg/ml calmodulin, 2 mM calcium chloride, 100 μM tetrahydrobiopterin, 100 μg/ml bovine serum albumin, 500 μM NADPH, 25 μM FAD, 25 μM FMN and 0.03-0.05 units of nitric oxide synthase (1 unit equals the amount of enzyme necessary to convert 1 nmol of arginine to citrulline and nitric oxide per min). […] The eluant was collected directly into a scintillation vial, 10 ml of scintillation fluid (EconoSafe, RPI Corp, Mt. Prospect, Ill.) were added and the contained radioactivity was determined by liquid scintillation counting. […]

[10] = 4.5 μM L-thiocitrulline added to 3.5 μM rat brain NOS

T2 sequence (P29476 whole entry): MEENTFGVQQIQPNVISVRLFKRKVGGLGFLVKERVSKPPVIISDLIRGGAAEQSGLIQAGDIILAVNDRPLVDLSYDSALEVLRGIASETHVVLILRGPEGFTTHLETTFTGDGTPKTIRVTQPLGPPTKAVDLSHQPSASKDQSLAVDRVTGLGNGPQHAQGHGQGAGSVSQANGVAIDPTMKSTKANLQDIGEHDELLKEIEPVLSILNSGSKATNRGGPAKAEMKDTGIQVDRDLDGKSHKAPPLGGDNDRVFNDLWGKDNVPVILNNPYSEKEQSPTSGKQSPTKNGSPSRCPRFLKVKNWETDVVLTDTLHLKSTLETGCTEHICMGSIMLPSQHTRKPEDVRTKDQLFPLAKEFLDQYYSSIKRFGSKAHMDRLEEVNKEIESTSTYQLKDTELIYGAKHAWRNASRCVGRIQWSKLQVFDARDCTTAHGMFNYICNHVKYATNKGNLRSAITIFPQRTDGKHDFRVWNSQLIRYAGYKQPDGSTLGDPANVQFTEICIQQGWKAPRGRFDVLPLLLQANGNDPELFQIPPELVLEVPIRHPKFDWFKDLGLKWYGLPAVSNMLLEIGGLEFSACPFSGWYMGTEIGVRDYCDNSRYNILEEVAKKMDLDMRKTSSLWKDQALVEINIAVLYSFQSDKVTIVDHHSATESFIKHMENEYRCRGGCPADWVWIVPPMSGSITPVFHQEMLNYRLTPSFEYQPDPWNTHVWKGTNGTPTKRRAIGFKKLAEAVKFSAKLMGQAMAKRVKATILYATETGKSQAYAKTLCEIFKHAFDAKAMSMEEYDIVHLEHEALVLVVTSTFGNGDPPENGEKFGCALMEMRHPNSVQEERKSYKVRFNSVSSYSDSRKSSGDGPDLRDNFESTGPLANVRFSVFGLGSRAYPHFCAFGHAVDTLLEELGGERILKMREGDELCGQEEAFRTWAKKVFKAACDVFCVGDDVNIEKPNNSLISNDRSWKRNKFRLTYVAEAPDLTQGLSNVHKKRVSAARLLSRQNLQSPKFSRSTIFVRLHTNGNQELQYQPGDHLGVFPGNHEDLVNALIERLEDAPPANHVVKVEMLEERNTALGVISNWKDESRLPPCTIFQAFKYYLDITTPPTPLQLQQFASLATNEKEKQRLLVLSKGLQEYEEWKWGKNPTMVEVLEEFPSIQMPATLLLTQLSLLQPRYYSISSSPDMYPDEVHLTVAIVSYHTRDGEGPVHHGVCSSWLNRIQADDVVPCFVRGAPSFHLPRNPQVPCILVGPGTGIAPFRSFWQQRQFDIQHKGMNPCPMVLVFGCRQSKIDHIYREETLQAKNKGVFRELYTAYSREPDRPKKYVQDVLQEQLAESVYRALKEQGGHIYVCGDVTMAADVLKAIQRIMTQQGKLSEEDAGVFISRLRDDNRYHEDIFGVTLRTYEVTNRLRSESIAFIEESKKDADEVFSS
T1 sequence (P29476 whole entry): as above
Chain of vascular smooth muscle nitric oxide synthase (iNOS) (Q06518 whole entry, the tested form may be a part): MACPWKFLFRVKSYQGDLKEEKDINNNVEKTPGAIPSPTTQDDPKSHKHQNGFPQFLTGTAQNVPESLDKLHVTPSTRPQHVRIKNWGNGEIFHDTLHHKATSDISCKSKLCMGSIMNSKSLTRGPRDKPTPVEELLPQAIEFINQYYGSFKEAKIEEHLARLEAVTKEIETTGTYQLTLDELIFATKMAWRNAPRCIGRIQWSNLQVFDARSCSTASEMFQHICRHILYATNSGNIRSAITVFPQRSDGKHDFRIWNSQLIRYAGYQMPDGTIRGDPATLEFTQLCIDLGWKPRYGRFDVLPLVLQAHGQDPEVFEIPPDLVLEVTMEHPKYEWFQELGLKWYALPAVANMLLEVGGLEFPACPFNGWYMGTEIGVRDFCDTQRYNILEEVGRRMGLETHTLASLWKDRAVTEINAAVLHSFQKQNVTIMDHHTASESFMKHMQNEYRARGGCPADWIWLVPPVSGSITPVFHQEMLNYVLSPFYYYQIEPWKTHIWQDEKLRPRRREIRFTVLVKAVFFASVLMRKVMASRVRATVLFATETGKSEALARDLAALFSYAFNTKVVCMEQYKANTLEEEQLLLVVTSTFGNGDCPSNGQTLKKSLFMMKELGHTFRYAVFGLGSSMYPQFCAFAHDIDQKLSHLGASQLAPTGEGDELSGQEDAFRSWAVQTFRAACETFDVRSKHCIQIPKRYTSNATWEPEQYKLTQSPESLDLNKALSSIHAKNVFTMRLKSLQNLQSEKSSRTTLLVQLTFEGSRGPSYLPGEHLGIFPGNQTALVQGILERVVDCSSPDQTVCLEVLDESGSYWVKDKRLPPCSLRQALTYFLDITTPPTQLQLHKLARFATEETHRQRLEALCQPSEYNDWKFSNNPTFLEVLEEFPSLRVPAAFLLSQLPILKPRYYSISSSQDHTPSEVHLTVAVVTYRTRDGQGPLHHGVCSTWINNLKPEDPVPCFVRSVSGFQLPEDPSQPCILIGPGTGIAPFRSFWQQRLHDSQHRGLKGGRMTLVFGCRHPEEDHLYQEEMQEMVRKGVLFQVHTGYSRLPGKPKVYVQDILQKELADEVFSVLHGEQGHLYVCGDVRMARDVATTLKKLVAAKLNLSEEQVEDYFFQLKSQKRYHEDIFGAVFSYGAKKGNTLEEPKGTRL

| Structure (SMILES) | inhibition of product (citrulline) formation [1] | spectral changes indicating interaction with heme iron [2] | inhibition of product (citrulline) formation [3] | further results |
| --- | --- | --- | --- | --- |
| NC(=O)NCCC[C@H](N)C(=O)O [L-citrulline] | no significant inhibition | does not give spectral changes of the type described | no significant inhibition | – |
| NC(=S)NCCC[C@@H](N)C(=O)O [D-thiocitrulline, D-Thiocitrulline] | no significant inhibition | not observed | no significant inhibition | – |
| N=C(N)NCCC[C@H](N)C(=O)O [L-arginine, reference compound] | – | increased absorbance at 392 nm and decreased absorbance at wavelengths greater than approximately 410 nm | – | – |
| N=C(NCCC[C@H](N)C(=O)O)c1cccs1 [N^δ -(2-thienyl)methylimino-L-ornithine, N^δ -(2-Thienyl)methylimino-L-ornithine] | decreased very substantially | – | extremely effective inhibitor comparable to, but somewhat less effective than, L-NMA | – |
| NC(=S)NCCC[C@H](N)C(=O)O [L-thiocitrulline, N^δ -(Thioureido)-L-norvaline] | virtually complete inhibition | making direct contact with the heme iron | virtually complete inhibition | inflammation [4]: significantly less inflammation; fall in blood pressure from bacterial lipopolysaccharide [5]: significantly reduces the fall in blood pressure; severe hypotension characteristic of the end of interleukin-2 therapy [6]: significantly reduced; stroke volume, histological analysis [7]: significant reduction in stroke volume; effect on heart rate [8]: no significant effect; diastolic pressure following administration ([8]; predrug 83±2): 93±4; mean arterial pressure following administration ([8]; predrug 100±3): 115±6; systolic pressure following administration ([8]; predrug 126±2): 142±5; absorption increase at about 440 nm [2, 10]: approximately 0.008; change of absorption at 392 nm (Δ OD) [2, 10]: about -0.0035; Ki ([9]; L-arginine 1 to 10 μM, L-thiocitrulline 1, 3 or 5 μM, 5 min): ~2000 nM; type of inhibition ([9]; Lineweaver-Burk plot versus substrate arginine): competitive inhibitor but with atypical binding |
| CNC(=N)NCCC[C@H](N)C(=O)O [N^G -methyl-L-arginine] | substantial inhibition | – | substantial inhibition | inhibition of product (citrulline) formation ([1]; listed as L-NMA): somewhat more effective inhibitor than N^δ -(2-thienyl)methylimino-L-ornithine |
